Measured values: patent US20120010260A1, “METHOD FOR TREATING NERVOUS SYSTEM DISORDERS AND CONDITIONS” (priority 2004, published 2012)
Where “and” joins values, the source holds several entries; their conditions need not be identical. Equal entries are not always repeated.

Experiments:
[1] = molecular target: T1, human serotonin transporter (hSERT) (Homo sapiens, UniProt P31645); assay: Serotonin (5-HT) uptake assay (hSERT function uptake) in JAR cells; type: cell-based; details: [3H]5-HT uptake
T1 construct: cells were stimulated with staurosporine (40 nM) to increase the expression of the 5-HT transporter; host or cells: JAR (human placental choriocarcinoma)
Experimental: The methods for 5-HT functional reuptake using the JAR cell line were modified using a previous literature report. […] On day 2, cells were stimulated with staurosporine (40 nM) to increase the expression of the 5-HT transporter. On day 3, cells were removed from the cell incubator two hours prior to assay and maintained at room temperature to equilibrate the growth medium to ambient oxygen concentration. […] Twenty-five microliters of assay buffer (maximum 5-HT uptake) or test compound were added directly to triplicate wells containing cells in 200 μl of assay buffer. The cells were incubated with the compound for 10 minutes (37° C.). […] The cells were incubated with the reaction mixture for 5 minutes at 37° C. The 5-HT uptake reaction was terminated by decanting the assay buffer.

[2] = molecular target: T2, human dopamine transporter (hDAT) (Homo sapiens, UniProt Q01959); assay: Dopamine transporter (hDAT) membrane binding assay, 3H-WIN 35,428
T2 construct: purchased Perkin Elmer RBHDATM

[3] = system: ovariectomized (OVX) rats, tail skin temperature (TST); assay: Telemetry rat model of ovariectomy-induced thermoregulatory dysfunction (tail skin temperature); type: in vivo; details: 30 mg/kg, sc; p<0.05 compared to vehicle control
Excerpt: This model has been modified from a previously reported protocol describing estrogen regulation of diurnal tail skin temperature (TST) patterns (Berendsen, et al., European Journal of Pharmacology, 2001, 419(1): 47-54). […] A temperature and physical activity transmitter (PhysioTel TA10TA-F40, Data Sciences International) was implanted subcutaneously in the dorsal scapular region and the tip of the temperature probe was tunneled subcutaneously 2.5 cm beyond the base of the tail. After a 7-day recovery period, TST readings were continuously recorded for the remainder of the study. Tail skin temperature readings were collected from each animal every 5 minutes with values obtained over a 10 second sampling period. The day before test day, an average baseline TST value was calculated for each animal by averaging temperature readings recorded during the 12 hour active (dark) phase. […]
Statistical analysis: Evaluation of a compound's ability to restore normal lowering of TST in the telemetry model was analyzed using hourly TST values calculated for each animal by averaging the 12 temperature readings obtained every 5 minutes over that recording time. […]
The effect of test compound is measured by evaluating the following parameters in this model: onset of action, duration of effect on TST, maximal change in TST and mean change in TST over the duration of the compound effect.

[4] = molecular target: human norepinephrine transporter (hNET) (Homo sapiens, UniProt P23975); details: read-out: hNET function uptake (EC50 in nm); MDCK-Net6 cells, [3H]NE uptake
[5] = system: Male Sprague-Dawley rats with L5/L6 spinal nerve ligation; assay: Spinal nerve ligation (SNL) model of neuropathic pain, tactile hypersensitivity (von Frey); type: in vivo; details: rat, 30 mg/kg IP, FIG. 7
Excerpt: Subjects. Male Sprague-Dawley rats (Indianapolis, Ind.) weighing 150 to 200 g at time of arrival, were individually housed in wire cages in a climate-controlled room. A 12-hour light/dark cycle (lights on at 0630) was in effect, and food and water were available ad libitum.
Surgery—Spinal Nerve Ligation. Rats were anesthetized with 3.5% halothane in O2 at 1 L/min and maintained with 1.5% halothane in O2 during surgery. Ligation of the L5 and L6 nerves was produced by an incision through the left paraspinal muscles. The left L5 and L6 spinal nerves were isolated adjacent to the vertebral column and ligated tightly with 6-0 silk suture just distal to the dorsal root ganglion. […]
Assessment of tactile hypersensitivity. […] Baseline tactile sensitivity was assessed using a series of calibrated von Frey monofilaments (Stoelting; Wood Dale, Ill.) 0 to 3 days before surgery. […] The ability of a single dose of test compound to reverse established hypersensitivity was assessed using a time course procedure. […]
Results are presented as the 50% threshold values (50% threshold in g force) estimated by the Dixon non-parametric test. […] Significant main effects were analyzed further by subsequent least significant difference analysis. […]
Reversal of tactile hypersensitivity was defined as a return to baseline of the tactile sensitivity and was calculated according to the following equation: […]

T2 sequence (Q01959 whole entry): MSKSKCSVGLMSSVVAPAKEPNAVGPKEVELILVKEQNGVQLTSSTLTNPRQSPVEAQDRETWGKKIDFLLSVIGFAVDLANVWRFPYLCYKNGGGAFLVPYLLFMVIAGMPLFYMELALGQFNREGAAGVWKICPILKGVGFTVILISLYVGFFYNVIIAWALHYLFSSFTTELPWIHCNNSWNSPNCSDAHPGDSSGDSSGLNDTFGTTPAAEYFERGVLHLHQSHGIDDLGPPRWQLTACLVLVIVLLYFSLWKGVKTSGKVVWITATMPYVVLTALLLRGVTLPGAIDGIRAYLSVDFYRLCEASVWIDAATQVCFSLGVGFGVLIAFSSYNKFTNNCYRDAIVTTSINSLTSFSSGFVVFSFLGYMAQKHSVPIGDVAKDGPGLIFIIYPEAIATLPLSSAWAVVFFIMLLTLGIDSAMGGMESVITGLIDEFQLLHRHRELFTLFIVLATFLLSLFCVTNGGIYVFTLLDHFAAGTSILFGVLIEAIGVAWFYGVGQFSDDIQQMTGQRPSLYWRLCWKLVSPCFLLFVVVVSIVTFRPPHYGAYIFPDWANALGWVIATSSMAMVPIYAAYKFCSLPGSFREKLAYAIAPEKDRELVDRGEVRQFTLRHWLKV
T1 sequence (P31645 whole entry): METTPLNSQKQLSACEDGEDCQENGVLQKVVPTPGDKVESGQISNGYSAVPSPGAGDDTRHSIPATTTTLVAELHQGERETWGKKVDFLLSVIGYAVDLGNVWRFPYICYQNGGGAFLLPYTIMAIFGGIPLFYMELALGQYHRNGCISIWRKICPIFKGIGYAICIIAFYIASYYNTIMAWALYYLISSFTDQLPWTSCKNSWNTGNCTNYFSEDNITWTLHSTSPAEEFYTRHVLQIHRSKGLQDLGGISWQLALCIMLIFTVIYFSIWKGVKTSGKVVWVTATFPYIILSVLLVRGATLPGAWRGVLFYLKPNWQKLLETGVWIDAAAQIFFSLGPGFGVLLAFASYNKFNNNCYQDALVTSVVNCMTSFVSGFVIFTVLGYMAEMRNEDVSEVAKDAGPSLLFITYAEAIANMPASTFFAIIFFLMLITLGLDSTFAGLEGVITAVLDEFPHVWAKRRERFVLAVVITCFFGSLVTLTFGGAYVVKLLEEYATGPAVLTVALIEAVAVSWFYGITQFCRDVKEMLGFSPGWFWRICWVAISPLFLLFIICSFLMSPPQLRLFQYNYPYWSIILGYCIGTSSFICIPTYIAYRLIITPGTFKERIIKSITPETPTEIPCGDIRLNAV
Sequence of human norepinephrine transporter (hNET) (P23975 whole entry): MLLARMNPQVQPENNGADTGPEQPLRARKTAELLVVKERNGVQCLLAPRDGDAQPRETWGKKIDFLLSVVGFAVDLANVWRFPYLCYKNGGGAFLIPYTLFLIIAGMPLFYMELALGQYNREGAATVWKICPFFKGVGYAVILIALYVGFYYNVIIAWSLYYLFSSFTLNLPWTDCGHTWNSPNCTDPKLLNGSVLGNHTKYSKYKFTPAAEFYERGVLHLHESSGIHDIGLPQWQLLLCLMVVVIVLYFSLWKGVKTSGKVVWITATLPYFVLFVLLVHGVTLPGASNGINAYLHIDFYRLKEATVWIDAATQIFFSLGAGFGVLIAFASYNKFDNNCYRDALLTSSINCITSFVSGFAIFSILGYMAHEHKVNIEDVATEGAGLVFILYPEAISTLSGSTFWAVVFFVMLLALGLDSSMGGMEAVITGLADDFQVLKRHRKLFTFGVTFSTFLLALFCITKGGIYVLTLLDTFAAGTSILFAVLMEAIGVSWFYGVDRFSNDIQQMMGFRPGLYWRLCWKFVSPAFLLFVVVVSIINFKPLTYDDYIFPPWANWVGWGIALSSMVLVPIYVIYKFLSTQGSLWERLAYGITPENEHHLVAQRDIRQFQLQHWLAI

Compound | EC50 [1] [µM] | hDAT binding (% I at 10 μM) [2] | Restoration of normal TST in OVX-induced thermoregulatory dysfunction telemetry model [3] | EC50 [4] [nM] | Reversal of tactile allodynia in the SNL neuropathic pain model [5] | hDAT binding (% I at 1 μM) ([2]; 1 μM) [% I]
Cc1ccc(C23CNCC2C3)cc1 (single isomer, unassigned; (+)) [(+)-1-(4-methylphenyl)-3-azabicyclo[3.1.0]hexane] | 7.35 | 51 % I | restores normal TST | 148 |  | 
Clc1ccc(C23CNCC2C3)cc1Cl (racemic) [Racemic 1-(3,4-dichlorophenyl)-3-azabicyclo[3.1.0]hexane, 1-(3,4-dichlorophenyl)-3-azabicyclo[3.1.0]hexane] |  |  |  |  | significantly reverses tactile allodynia | 
Cc1ccc(C23CNCC2C3)cc1 (racemic) [Racemic 1-(4-methylphenyl)-3-azabicyclo[3.1.0]hexane, 1-(4-methylphenyl)-3-azabicyclo[3.1.0]hexane] |  | 45 % I and 52.1 % I | restores normal TST |  |  | 26.5
